Reference: the supplement of paper PMC13380429

Key:
Conditions in all cases: 72 h
Calu-3 [1] = assay: drug sensitivity score (DSS) for viability; higher = more toxic; extreme values may be limits of the assay
Caco-2 [2] = assay: as above
U2OS [3] = assay: as above
HepG2 [4] = assay: as above
Vero E6 [5] = assay: as above
Calu-3 [6] = assay: cell viability relative to DMSO; higher = less toxic
Caco-2 [7] = assay: as above
U2OS [8] = assay: as above
HepG2 [9] = assay: as above
Vero E6 [10] = assay: as above
Calu-3 [11] = assay: relative viability EC50 (midpoint between 100% and the lowest measured viability); higher = less toxic
Caco-2 [12] = assay: as above
U2OS [13] = assay: as above
HepG2 [14] = assay: as above
Vero E6 [15] = assay: as above

| Compound | drug sensitivity score (Calu-3 [1]) | drug sensitivity score (Caco-2 [2]) | drug sensitivity score (U2OS [3]) | drug sensitivity score (HepG2 [4]) | drug sensitivity score (Vero E6 [5]) | cell viability (Calu-3 [6]; 1 nM) [%] | cell viability (Calu-3 [6]; 10 nM) [%] | cell viability (Calu-3 [6]; 100 nM) [%] | cell viability (Calu-3 [6]; 1000 nM) [%] | cell viability (Calu-3 [6]; 10000 nM) [%] | cell viability (Caco-2 [7]; 1 nM) [%] | cell viability (Caco-2 [7]; 10 nM) [%] | cell viability (Caco-2 [7]; 100 nM) [%] | cell viability (Caco-2 [7]; 1000 nM) [%] | cell viability (Caco-2 [7]; 10000 nM) [%] | cell viability (U2OS [8]; 1 nM) [%] | cell viability (U2OS [8]; 10 nM) [%] | cell viability (U2OS [8]; 100 nM) [%] | cell viability (U2OS [8]; 1000 nM) [%] | cell viability (U2OS [8]; 10000 nM) [%] | cell viability (HepG2 [9]; 1 nM) [%] | cell viability (HepG2 [9]; 10 nM) [%] | cell viability (HepG2 [9]; 100 nM) [%] | cell viability (HepG2 [9]; 1000 nM) [%] | cell viability (HepG2 [9]; 10000 nM) [%] | cell viability (Vero E6 [10]; 1 nM) [%] | cell viability (Vero E6 [10]; 10 nM) [%] | cell viability (Vero E6 [10]; 100 nM) [%] | cell viability (Vero E6 [10]; 1000 nM) [%] | cell viability (Vero E6 [10]; 10000 nM) [%] | relative viability EC50 (Calu-3 [11]) [µM] | relative viability EC50 (Caco-2 [12]) [µM] | relative viability EC50 (U2OS [13]) [µM] | relative viability EC50 (HepG2 [14]) [µM] | relative viability EC50 (Vero E6 [15]) [µM] |
| --- | --- | --- | --- | --- | --- | --- | --- | --- | --- | --- | --- | --- | --- | --- | --- | --- | --- | --- | --- | --- | --- | --- | --- | --- | --- | --- | --- | --- | --- | --- | --- | --- | --- | --- | --- |
| CCC1NC(=O)c2cc(S(N)(=O)=O)c(Cl)cc2N1 (stereo not given) [quinethazone] | 0 | 0.7 | 0 | 0 | 0 | 101 | 94.8 | 97.5 | 91.2 | 95.1 | 94.3 | 108 | 96.4 | 97.4 | 82.9 | 91.9 | 100 | 93.3 | 101 | 105 | 110 | 103 | 103 | 92.6 | 93.1 | 106 | 86.7 | 103 | 100 | 98.6 | > 10 | > 10 | > 10 | > 10 | > 10 |
| NC(=O)c1cn(Cc2c(F)cccc2F)nn1 [rufinamide] | 0 | 0 | 0 | 0 | 0 | 101 | 97.7 | 99.1 | 101 | 100 | 111 | 97.4 | 93.3 | 97.1 | 104 | 99.6 | 100 | 101 | 98 | 104 | 109 | 102 | 94.1 | 101 | 97.4 | 101 | 101 | 101 | 97.9 | 103 | > 10 | > 10 | > 10 | > 10 | > 10 |
| O=C(CCCCCN1C(=O)c2cccc3cccc(c23)C1=O)NO [scriptaid] | 8 | 8.6 | 9.4 | 8.8 | 9.3 | 101 | 102 | 102 | 73.7 | 23.4 | 107 | 90.8 | 97.6 | 80 | 2.4 | 102 | 98.6 | 96.8 | 72.7 | 3.1 | 108 | 109 | 93 | 78.2 | 2.9 | 107 | 106 | 103 | 75.3 | 0.1 | 1.3 | 1.72 | 1.45 | 1.64 | 1.56 |
| Clc1ccc(C(Cn2ccnc2)OCc2csc3c(Cl)cccc23)c(Cl)c1 (stereo not given) [sertaconazole] | 0 | 0.1 | 0 | 0 | 0 | 106 | 96.1 | 106 | 95.1 | 96.1 | 97 | 101 | 95 | 95.6 | 85.4 | 94.1 | 95.4 | 98.9 | 91.4 | 88.6 | 116 | 96.8 | 102 | 105 | 100 | 102 | 102 | 105 | 105 | 99.5 | > 10 | > 10 | > 10 | > 10 | > 10 |
| CC(C)(C)C(=O)Oc1ccc(S(=O)(=O)Nc2ccccc2C(=O)NCC(=O)O)cc1 [sivelestat] | 0 | 0 | 0 | 0 | 0 | 97.2 | 96.1 | 90.5 | 103 | 109 | 91 | 97 | 94.1 | 93.5 | 91.3 | 98.5 | 100 | 96.2 | 101 | 96.5 | 101 | 92.6 | 103 | 90 | 98.3 | 107 | 96.5 | 104 | 98.8 | 100 | > 10 | > 10 | > 10 | > 10 | > 10 |
| O=C1O[C@H]([C@@H](O)CO)C([O-])=C1O.[Na+] [sodium-ascorbate] | 0 | 0 | 0 | 0 | 0 | 100 | 102 | 97 | 98.5 | 102 | 91.7 | 93.1 | 98.9 | 95.2 | 102 | 97.9 | 89.9 | 101 | 97.7 | 103 | 96.8 | 104 | 92.1 | 110 | 111 | 97.5 | 107 | 97.2 | 100 | 106 | > 10 | > 10 | > 10 | > 10 | > 10 |
| O=C1NCN(c2ccccc2)C12CCN(CC1COc3ccccc3O1)CC2 (stereo not given) [spiroxatrine] | 0 | 0 | 0 | 0 | 0 | 98.3 | 99 | 92 | 100 | 104 | 95.2 | 101 | 101 | 100 | 98.2 | 106 | 98 | 99.3 | 94.8 | 99 | 87.5 | 94.3 | 87.6 | 104 | 103 | 103 | 99.8 | 104 | 97.9 | 109 | > 10 | > 10 | > 10 | > 10 | > 10 |
| OC[C@H]1O[C@H](O[C@]2(CCl)O[C@H](CCl)[C@@H](O)[C@@H]2O)[C@H](O)[C@@H](O)[C@H]1Cl [sucralose] | 0 | 0 | 0 | 0 | 0 | 99.6 | 91.8 | 98.5 | 99.1 | 95.5 | 96.8 | 94.1 | 99.1 | 95.9 | 101 | 102 | 100 | 103 | 96 | 103 | 99.1 | 97.7 | 96.8 | 96.2 | 97 | 100 | 102 | 101 | 106 | 92.7 | > 10 | > 10 | > 10 | > 10 | > 10 |
| Nc1ccc(S(=O)(=O)NC(=O)c2ccccc2)cc1 [sulfabenzamide] | 0 | 0 | 0 | 0 | 0 | 109 | 101 | 96.8 | 106 | 106 | 92.3 | 104 | 100 | 100 | 108 | 94.7 | 93.9 | 102 | 98.1 | 103 | 109 | 102 | 99 | 103 | 109 | 97.4 | 95.4 | 92.1 | 96.7 | 105 | > 10 | > 10 | > 10 | > 10 | > 10 |
| Cc1cccc(Oc2cnc(=O)[nH]c2)c1 [tolimidone] | 0 | 0 | 0 | 0 | 0 | 108 | 93.8 | 92.2 | 99.7 | 95.8 | 111 | 95.7 | 94.8 | 95.9 | 102 | 103 | 98.4 | 103 | 99.9 | 104 | 111 | 95.4 | 80.8 | 94.1 | 98 | 108 | 95.4 | 90.3 | 95.7 | 91.2 | > 10 | > 10 | > 10 | > 10 | > 10 |
| Nc1ccn([C@H]2C[C@H](O)[C@@H](CO)O2)c(=O)n1 [torcitabine] | 0 | 0.3 | 0 | 0 | 0 | 100 | 94.6 | 91.9 | 99.9 | 85.6 | 105 | 95 | 101 | 97.1 | 86.5 | 102 | 106 | 99.1 | 104 | 95.5 | 105 | 94.3 | 94.6 | 104 | 98.8 | 104 | 95.7 | 90.2 | 95.2 | 101 | > 10 | > 10 | > 10 | > 10 | > 10 |
| CCCCNc1c(C(=O)OCC)c(C)nc2c1cnn2CC [tracazolate] | 0.1 | 0 | 0 | 0 | 0 | 101 | 85.1 | 98.6 | 102 | 86.4 | 93.3 | 96.1 | 97.2 | 92.7 | 101 | 101 | 93.2 | 102 | 97.7 | 93.6 | 97.6 | 104 | 92.5 | 106 | 99.3 | 93 | 97.7 | 96.9 | 96.7 | 96.5 | > 10 | > 10 | > 10 | > 10 | > 10 |
| O=C(Nc1ccc(Br)cc1)c1cc(Br)cc(Br)c1O [tribomsalan] | 0 | 0.6 | 0 | 0.4 | 0 | 94.4 | 92.2 | 93.2 | 102 | 91.2 | 90.7 | 90.3 | 94.7 | 105 | 76.3 | 96.6 | 98 | 96 | 102 | 96.4 | 102 | 104 | 94.5 | 99.7 | 82.7 | 93.5 | 100 | 91.1 | 93.7 | 98.6 | > 10 | > 10 | > 10 | > 10 | > 10 |
